Here are results for four molecules from EP1724268A1, “COMPOUND HAVING TGF-BETA INHIBITORY ACTIVITY AND PHARMACEUTICAL COMPOSITION CONTAINING SAME” (KIRIN BEER KABUSHIKI KAISHA, priority 2004, dated 2005).

The term inhibition denotes the percentage by which the read-out fell short of the control.

Structures are written as SMILES. Where two headings read alike, the source gives them in different places. Marks after values point to notes of the source that are not given here.

Assay [1] deals with mouse DMN hepatic fibrosis model. The experiment in a line: Anti-fibrotic activity, mouse DMN hepatic fibrosis model (Test Example 4). As to conditions: DMN administration, 21 days, average of 6 mice ± standard deviation. In kind it is in vivo, BALB/c mice. On the procedure:
The anti-fibrotic activity of a compound related to the present invention was evaluated using a mouse DMN hepatic fibrosis model as a liver fibrosis model. Compound r384 prepared in the working example was used as the test compound. Six-week-old male BALB/c mice (available from Charles River Japan, Inc.) were purchased and were pre-raised before use in experiments. The mice were divided into a vehicle administration group (n = 6) and a test compound administration group ([…]) using the weight as an index. Thereafter, dimethylnitrosoamine (DMN) diluted with physiological saline was intraperitoneally administered at 15 mg/kg three times per week for 3 weeks to induce hepatic fibrosis. The administration of the test compound was carried out from the first day of the DMN administration. The test compound was mixed at the dosage of 0.015, 0.03, and 0.06% in powder diet CE-2 (available from CLEA JAPAN INC.), and the mixtures were fed as a diet to each mouse group. After 21 days, the mice underwent laparotomy under ether anesthesia, and blood was collected from the heart, followed by measurement of the level of hyaluronic acid in blood as an index of hepatic fibrosis using a hyaluronic acid plate (Chugai Pharmaceutical Co., Ltd.).
The values in the table are average of data on 6 mice for each group ± standard deviation.

In another assay the test system is TGFβ signal. Briefly: TGFβ signal inhibitory activity, (SBE)4-Luc reporter in A549 cells (Test Examples 1A and 1B). As to conditions: Homo sapiens, A549, read-out: TGFβ inhibition rate, %. In kind it is cell-based, human. The method in brief:
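Stable A549 line carrying (SBE)4-Luc Smad3-binding reporter treated with compound plus TGFβ-1 (2 ng/ml) for 4 hr; luciferase read by chemiluminescence. Percent inhibition relative to TGFβ-only and untreated cells, tested at 3 µM and 10 µM, some also at 1 µM.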

For assay [2], the system named is mouse unilateral ureteral obstruction (UUO) model. The experiment in a line: Anti-fibrotic activity, mouse unilateral ureteral obstruction (UUO) model, oral administration (Test Example 2). In kind it is in vivo, BALB/c mice. As to conditions: UUO treatment, left kidney, average of 7 mice ± standard deviation. On the procedure:
The anti-fibrotic activity of the compounds related to the present invention was evaluated using a mouse unilateral ureteral obstruction (UUO) model which is a renal fibrosis model. Compound r384 produced in the working example was used as the test compound. Seven week-old male BALB/c mice (available from Charles River Japan, Inc.) were purchased and were pre-raised before use in experiments. Regarding diets and drinking water, pellets CE-2 (available from CLEA JAPAN INC.) and sterile tap water were freely fed. The mice underwent laparotomy under pentobarbital anesthesia, and the left renal urinary duct was ligated. Thereafter, the mice underwent suturing operation and were divided into a vehicle administration group (n = 7) and a test compound administration group (n = 7) using the weight as an index. The test compound was weighed, and then one drop of 1 N HCl was added to the test compound to prepare a solution. The solution was then suspended in 0.5% carboxymethylcellulose (solvent). The suspension was forcibly orally administered twice a day with an oral sonde from the day of urinary duct ligation (5, 15, or 50 mg/kg). The solvent was administered to the vehicle administration group in the same manner as described just above.
After administration for 4 days, the mouse left kidney was removed, and the hydroxyproline content as an index of organ fibrosis was measured by the following method. Renal pieces were first placed in 6 N HCl, were homogenized, and were then heated on a heat block at 130°C for 3 hr to hydrolyze protein. Thereafter, the suspension of renal pieces was neutralized by the addition of an appropriate amount of 4 N NaOH. The neutralized suspension was centrifuged (1000 rpm, 5 min, room temperature) to obtain the supernatant as a kidney extract. […] The absorbance at 557 nm was then measured. The content of hydroxyproline was determined from the measured data based on a calibration curve for hydroxyproline prepared using control. Further, the content of hydroxyproline thus determined was corrected according to the weight of the homogenized kidney. […]

For assay [3] the test system is unchanged. The experiment in a line: Anti-fibrotic activity, mouse UUO model, mixed feed for 10 days (Test Example 3). In kind it is in vivo. As to conditions: UUO treatment, kidney, average of five mice ± standard deviation. The procedure: The anti-fibrotic activity of the compounds related to the present invention was evaluated using a mouse unilateral ureteral obstruction (UUO) model which is a renal fibrosis model. Compound r384 produced in the working example was used as the test compound. Seven week-old male BALB/c mice (available from Charles River Japan, Inc.) were purchased and were pre-raised before use in experiments. Regarding diets and drinking water, pellets CE-2 (available from CLEA JAPAN INC.) and sterile tap water were freely fed. The mice underwent laparotomy under pentobarbital anesthesia, and the left renal urinary duct was ligated. […] After administration for 4 days, the mouse left kidney was removed, and the hydroxyproline content as an index of organ fibrosis was measured by the following method. […] The absorbance at 557 nm was then measured. The content of hydroxyproline was determined from the measured data based on a calibration curve for hydroxyproline prepared using control. Further, the content of hydroxyproline thus determined was corrected according to the weight of the homogenized kidney. The anti-fibrotic activity of a compound related to the present invention was evaluated using the same model as used in Test Example 2. […]

Assay [4] has as its system rat unilateral ureteral obstruction (UUO) model. The experiment in a line: Anti-fibrotic activity, rat unilateral ureteral obstruction (UUO) model (Test Example 5). In kind it is in vivo, SD rats. As to conditions: UUO treatment, left kidney, corrected by total protein of kidney extract, average of 6 rats ± standard deviation. The procedure:
The anti-fibrotic activity of the compounds described in the present specification was evaluated using a rat unilateral ureteral obstruction (UUO) model which is a renal fibrosis model. Compound 50 and compound 159 were used as the test compound. Six week-old male SD rats (available from Charles River Japan, Inc.) were purchased and were pre-raised before use in experiments. Regarding diets and drinking water, pellets CE-2 (available from CLEA JAPAN INC.) and sterile tap water were freely fed. The rats underwent laparotomy under pentobarbital anesthesia, and the left renal urinary duct was ligated. Thereafter, the […] underwent suturing operation and were divided into a vehicle administration group (n = 6) and a test compound administration group (n = 6) using the weight as an index. The test compound was mixed in amounts of 0.03% and 0.1% in powder diet CE-2 (available from CLEA JAPAN INC.), and the mixtures were fed as a diet to each rat group from the first day of the ureteral obstruction.
After administration of the mixed feed for 7 days, the left kidney was removed, and the hydroxyproline content as an index of organ fibrosis was measured by the following method. Specifically, renal pieces were first placed in 6 N HCl, were homogenized, and were then heated on a heat block at 130°C for 3 hr to hydrolyze protein. Thereafter, the suspension of renal pieces was neutralized by the addition of an appropriate amount of 4 N NaOH. The neutralized suspension was centrifuged (1000 rpm, 5 min, room temperature) to obtain the supernatant as a kidney extract. A chloramine T liquid, a perchloric acid solution (a solution prepared by adding distilled water to 31.5 ml of 60% perchloric acid to adjust the total volume to 100 ml), and a p-dimethylaminobenzaldehyde solution (a solution prepared by adding […] to 20 g of p-dimethylaminobenzaldehyde to adjust the total volume to 100 ml) were added to the kidney extract, and a reaction was allowed to proceed at 60°C for 20 min. The absorbance at 557 nm was then measured. The content of hydroxyproline was determined from the measured data based on a calibration curve for hydroxyproline prepared using control. Further, the content of hydroxyproline thus determined was corrected according to the total protein content of the kidney extract.
The values in the tables are average of data on 6 rats for each group ± standard deviation.

The mark [5] stands for this setting: 3 µM, compounds of Reference Examples (Test Example 1B).
[6] abbreviates: 10 µM, compounds of Reference Examples (Test Example 1B).
[7] abbreviates: test compound 3 µM, TGFβ-1 2 ng/ml, 4 hr, Table 1A.
The mark [8] stands for this setting: test compound 10 µM, TGFβ-1 2 ng/ml, 4 hr, Table 1A.

`COc1cc2c(Oc3cc4ccccc4nc3C)ccnc2cc1OCC(O)CO` (stereo not shown) [Compound r384, 3-[6-Methoxy-4-(2-metharl-quinolin-3-yloxy)-quinolin-7-yloxy]-propane-1,2-diol]: the “Blood hyaluronic acid content” value in assay [1] (0.015% mixed feed) came out at 167.8 ± 25.0 ng/mL. Further, the “Blood hyaluronic acid content (ng/ml)” value in assay [1] (0.06% mixed feed) was 97.2 + 11.0** ng/ml. For the same molecule, in the assay with TGFβ signal (setting [5]), the inhibition at 3 µM turned out to be 100%. The inhibition at 10 µM with TGFβ signal (setting [6]) came to 100%. In addition, the values for the Hydroxyproline content in assay [2] (5 mg/kg orally twice a day for 4 days), in assay [2] (15 mg/kg orally twice a day for 4 days) and in assay [2] (50 mg/kg orally twice a day for 4 days) were 514 ± 20.8 µg/g, 488 ± 10.9 µg/g and 426 ± 14.2 µg/g, respectively.

As to `COc1cc2c(Oc3cc(C)c(C)cc3C(C)=O)ccnc2cc1OCCCN1CCOCC1.Cl` [Compound r320, 1-{2-[6-Methoxy-7-(3-morpholin-4-yl-propoxy)-quinolin-4-yloxy]-4,5-dimethyl-phenyl}-ethanone hydrochloride], the “Hydroxyproline content (mg/g protein)” value is given as 9.44 ± 0.53 mg/g protein in assay [3] (0.1% mixed feed for 10 days) and 9.19 ± 0.38 mg/g protein in assay [3] (0.3% mixed feed for 10 days). Further, the inhibition at 3 µM in the assay on TGFβ signal (setting [5]) is 100%. In addition, in the assay with TGFβ signal (setting [6]), the inhibition at 10 µM was 100%.

As for `CCc1ccc(Oc2ccnc3cc(OC)c(F)cc23)c(-c2ncccn2)n1` [Compound 159, 4-(6-Ethyl-2-pyrimidin-2-yl-pyridin-3-yloxy)-6-fluoro-7-methoxy-quinoline], the “Hydroxyproline content” value in assay [4] (0.03% mixed feed for 7 days, Table 5b) was 22.47 ± 0.82 mg/g; in assay [4] (0.1% mixed feed for 7 days, Table 5b) it was 17.28 ± 0.87 mg/g. Also, the inhibition at 3 µM in the assay with TGFβ signal (setting [7]) stood at 99%. The inhibition at 10 µM with TGFβ signal (setting [8]) is 100%.

Take `CCc1ccc(Oc2ccnc3cc(OC)c(OC)cc23)c(-c2ncccn2)n1` [Compound 50, 4-(6-Ethyl-2-pyrimidin-2-yl-pyridin-3-yloxy)-6,7-dimethoxy-quinoline]: the “Hydroxyproline content” value came to 7.33 ± 0.67 mg/g in assay [4] (0.03% mixed feed for 7 days, Table 5a) and 4.67 ± 0.22 mg/g in assay [4] (0.1% mixed feed for 7 days, Table 5a). The inhibition at 3 µM with TGFβ signal (setting [7]) is 98%. In addition, the inhibition at 10 µM with TGFβ signal (setting [8]) turned out to be 100%.
